In patent US8263611B2, “Hydrochloride salt of an azabicyclo[3.2.1]octane derivative” (Neurosearch A/S, priority 2007, dated 2012):
Where a name gives a salt, the structure may show the parent alone.

Assay: solubility by stirred slurry, salt concentration in solution by HPLC
Format: physicochemical
Details: 25 °C, thermodynamic from solid, after 8 days stirring at 25 degC, slurry in "a volume of solvent" (solvent not named)
Protocol: The solubility of a sample of the hydrochloride salt of the invention was determined by adding an amount of it to a volume of solvent with stirring so as to form a slurry. The slurry was stirred at 25 degC. The stirred slurry was tested at regular intervals (i.e. 1, 3, 6 and 8 days) until the concentration of the salt in solution was substantially constant. HPLC was used to determine the salt concentration in solution.

## COCC1C2CCC(CC1c1ccc(Cl)c(Cl)c1)N2 [salt of the invention, hydrochloride salt of (1R,2R,3S,5S)-3-(3,4-dichlorophenyl)-2-[(methyloxy)methyl]-8-azabicyclo[3.2.1]octane]
  solubility at 8 days: 438 mg/mL
